Measured values as given in PubChem BioAssay (NCI).
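Five concentrations, 48 hours, 96-well plates. At the GI50, growth is halved. TGI is the concentration that stops growth completely.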

Tests used:
Assay in all cases: DTP human tumour cell line panel, 48 h
[1] = test system: ACHN renal
[2] = test system: K-562 leukemia
[3] = test system: NCI-H226 lung
[4] = test system: NCI-H460 lung
[5] = test system: 786-0 renal
[6] = test system: HS 578T breast
[7] = test system: NCI-H522 lung
[8] = test system: U251 CNS
[9] = test system: MCF7 breast
[10] = test system: TK-10 renal
[11] = test system: NCI/ADR-RES ovarian
[12] = test system: MDA-MB-468 breast
[13] = test system: LOX IMVI melanoma
[14] = test system: HT29 colon
[15] = test system: HOP-92 NSCLC
[16] = test system: SR leukemia
[17] = test system: RXF 393 renal
[18] = test system: UACC-62 melanoma
[19] = test system: BT-549 breast
[20] = test system: KM12 colon
[21] = test system: SF-268 CNS
[22] = test system: SK-MEL-2 melanoma
[23] = test system: A549 NSCLC
[24] = test system: UACC-257 melanoma
[25] = test system: NCI-H23 lung
[26] = test system: IGROV1 ovarian
[27] = test system: SNB-19 CNS
[28] = test system: SF-539 CNS
[29] = test system: UO-31 renal
[30] = test system: HL-60(TB) leukemia
[31] = test system: MALME-3M melanoma
[32] = test system: HOP-62 NSCLC
[33] = test system: CCRF-CEM leukemia
[34] = test system: CAKI-1 renal
[35] = test system: PC-3 prostate
[36] = test system: EKVX NSCLC
[37] = test system: OVCAR-5 ovarian
[38] = test system: HCT-116 colon
[39] = test system: DU-145 prostate
[40] = test system: COLO 205 colon
[41] = test system: SK-MEL-28 melanoma
[42] = test system: M14 melanoma
[43] = test system: OVCAR-8 ovarian
[44] = test system: SK-OV-3 ovarian
[45] = test system: SN12C renal
[46] = test system: SNB-75 CNS
[47] = test system: MDA-MB-231 breast
[48] = test system: OVCAR-4 ovarian
[49] = test system: OVCAR-3 ovarian
[50] = test system: SK-MEL-5 melanoma
[51] = test system: RPMI-8226 leukemia
[52] = test system: SF-295 CNS
[53] = test system: MDA-MB-435
[54] = test system: T-47D breast
[55] = test system: MOLT-4 leukemia
[56] = test system: HCT-15 colon
[57] = test system: SW-620 colon
[58] = test system: A498 renal
[59] = test system: HCC-2998 colon

COc1ccc(S(=O)(=O)Nc2ccc(-c3ccc4c(c3)NC(=O)/C4=C\c3ccc[nH]3)cc2)cc1OC
GI50 [1]: 6.99 µM
TGI [1]: 20.2 µM
GI50 [2]: 11.9 µM
TGI [2]: > 100 µM
GI50 [3]: 1.82 µM
TGI [3]: 12.8 µM
GI50 [4]: 0.343 µM
TGI [4]: 11.3 µM
GI50 [5]: 3.43 µM
TGI [5]: 15.2 µM
GI50 [6]: 4.6 µM
TGI [6]: 61.8 µM
GI50 [7]: 3.25 µM
TGI [7]: 23 µM
GI50 [8]: 10.1 µM
TGI [8]: 23.2 µM
GI50 [9]: 0.0476 µM
TGI [9]: 11.1 µM
GI50 [10]: 3.3 µM
TGI [10]: 18.7 µM
GI50 [11]: 14 µM
TGI [11]: > 100 µM
GI50 [12]: 0.0309 µM
TGI [12]: 0.113 µM
GI50 [13]: 6.39 µM
TGI [13]: 27.6 µM
GI50 [14]: 7.61 µM
TGI [14]: > 100 µM
GI50 [15]: 3.43 µM
TGI [15]: 18.3 µM
GI50 [16]: 0.86 µM
TGI [16]: > 100 µM
GI50 [17]: 1.4 µM
TGI [17]: 6.74 µM
GI50 [18]: 0.75 µM
TGI [18]: 8.59 µM
GI50 [19]: 2.23 µM
TGI [19]: 9.35 µM
GI50 [20]: 9.03 µM
TGI [20]: > 100 µM
GI50 [21]: 15.3 µM
TGI [21]: 55.2 µM
GI50 [22]: 14.3 µM
TGI [22]: 33.8 µM
GI50 [23]: 2.18 µM
TGI [23]: 14.2 µM
GI50 [24]: 0.691 µM
TGI [24]: 12.1 µM
GI50 [25]: 0.194 µM
TGI [25]: 14.7 µM
GI50 [26]: 12.9 µM
TGI [26]: 33 µM
GI50 [27]: 12.6 µM
TGI [27]: 26.3 µM
GI50 [28]: 1.66 µM
TGI [28]: 11 µM
GI50 [29]: 12.9 µM
TGI [29]: 27.4 µM
GI50 [30]: 8.35 µM
TGI [30]: > 100 µM
GI50 [31]: 4.26 µM
TGI [31]: 15.9 µM
GI50 [32]: 10.2 µM
TGI [32]: 23.3 µM
GI50 [33]: 16.1 µM
TGI [33]: > 100 µM
GI50 [34]: 6.18 µM
TGI [34]: 19.9 µM
GI50 [35]: 10.1 µM
TGI [35]: 41.3 µM
GI50 [36]: 0.0835 µM
TGI [36]: 17.5 µM
GI50 [37]: 10.6 µM
TGI [37]: 23.8 µM
GI50 [38]: 4.72 µM
TGI [38]: 88.5 µM
GI50 [39]: 4.88 µM
TGI [39]: 20.8 µM
GI50 [40]: 10.2 µM
TGI [40]: 83.3 µM
GI50 [41]: 0.886 µM
TGI [41]: 7.07 µM
GI50 [42]: 2.4 µM
TGI [42]: 17.4 µM
GI50 [43]: 11.2 µM
TGI [43]: 28.9 µM
GI50 [44]: 3.59 µM
TGI [44]: 15.1 µM
GI50 [45]: 12.4 µM
TGI [45]: 30.8 µM
GI50 [46]: 1.37 µM
TGI [46]: 21.2 µM
GI50 [47]: 3.82 µM
TGI [47]: 15.3 µM
GI50 [48]: 1.76 µM
TGI [48]: 11.8 µM
GI50 [49]: 8.4 µM
TGI [49]: 27.5 µM
GI50 [50]: 3.35 µM
TGI [50]: 22.1 µM
GI50 [51]: 8.33 µM
TGI [51]: > 100 µM
GI50 [52]: 3.12 µM
TGI [52]: 15.1 µM
GI50 [53]: 6.35 µM
TGI [53]: 38.9 µM
GI50 [54]: 0.0285 µM
TGI [54]: 1.27 µM
GI50 [55]: 14.8 µM
TGI [55]: > 100 µM
GI50 [56]: 13.7 µM
TGI [56]: > 100 µM
GI50 [57]: 8.53 µM
TGI [57]: 71.7 µM
GI50 [58]: 14.3 µM
TGI [58]: 28.5 µM
GI50 [59]: 5.74 µM
TGI [59]: > 100 µM
